From ChEMBL document CHEMBL1153778, “Contact-active microbicidal gold surfaces using immobilization of quaternary ammonium thiol derivatives” (2009)

Key:
Format in all cases: functional
Staphylococcus aureus [1] = test: Antimicrobial activity against Staphylococcus aureus ATCC 6538 on gold coated surface assessed as log reduction of colony forming units after 4 hrs
Staphylococcus aureus [2] = test: Antimicrobial activity against Staphylococcus aureus ATCC 6538 on gold coated surface assessed as log reduction of colony forming units after 24 hrs
Staphylococcus aureus [3] = test: Antimicrobial activity against Staphylococcus aureus ATCC 6538 on gold coated surface assessed as bactericidal efficiency after 4 hrs

SMILES	Activity (Staphylococcus aureus [1])	Activity (Staphylococcus aureus [2])	Activity (Staphylococcus aureus [3])
CCCCCCCCCC[N+](C)(C)CCCNC(=O)CCCCCCCCCCS.[Cl-]	0.39	0	67
C[N+](C)(C)CCCCCCCCCCCS.[Cl-]	0.14	0	30
CCCCCCCCCC[N+](C)(C)CCCCCCCCCCCS.[Cl-]	0.31	0	51
CCCCCCCCCCCCCC[N+](C)(C)CCCNC(=O)CCCCCCCCCCS.[Cl-]	0.14	0	30
C[N+](C)(CCCNC(=O)CCCCCCCCCCS)Cc1ccccc1.[Cl-]	0	0	0
CCCCCCCCCCCC[N+](C)(C)CCCCCCCCCCCS.[Cl-]	0.31	0	51
CCCCCCCCCCCCCC[N+](C)(C)CCCCCCCCCCCS.[Cl-]	0	0	0
C[N+](C)(C)CCCNC(=O)CCCCCCCCCCS.[Cl-]	0.14	0	30
CCCCCCCCCCCC[N+](C)(C)CCCNC(=O)CCCCCCCCCCS.[Cl-]	0.31	0	51
C[N+](C)(CCCCCCCCCCCS)Cc1ccccc1.[Cl-]	0.14	0	30
